Data as given in publication PMC10451018 (Protein Science : A Publication of the Protein Society, 2023).

Assays:
[1] = molecular target: T1, Azorhizobium caulinodans malic enzyme, AcME (Azorhizobium caulinodans, UniProt A8IFW0); assay: spectrophotometric NADH formation at […] nm; format: biochemical; conditions: L-malate as co-substrate
T1 sequence (A8IFW0 1-759): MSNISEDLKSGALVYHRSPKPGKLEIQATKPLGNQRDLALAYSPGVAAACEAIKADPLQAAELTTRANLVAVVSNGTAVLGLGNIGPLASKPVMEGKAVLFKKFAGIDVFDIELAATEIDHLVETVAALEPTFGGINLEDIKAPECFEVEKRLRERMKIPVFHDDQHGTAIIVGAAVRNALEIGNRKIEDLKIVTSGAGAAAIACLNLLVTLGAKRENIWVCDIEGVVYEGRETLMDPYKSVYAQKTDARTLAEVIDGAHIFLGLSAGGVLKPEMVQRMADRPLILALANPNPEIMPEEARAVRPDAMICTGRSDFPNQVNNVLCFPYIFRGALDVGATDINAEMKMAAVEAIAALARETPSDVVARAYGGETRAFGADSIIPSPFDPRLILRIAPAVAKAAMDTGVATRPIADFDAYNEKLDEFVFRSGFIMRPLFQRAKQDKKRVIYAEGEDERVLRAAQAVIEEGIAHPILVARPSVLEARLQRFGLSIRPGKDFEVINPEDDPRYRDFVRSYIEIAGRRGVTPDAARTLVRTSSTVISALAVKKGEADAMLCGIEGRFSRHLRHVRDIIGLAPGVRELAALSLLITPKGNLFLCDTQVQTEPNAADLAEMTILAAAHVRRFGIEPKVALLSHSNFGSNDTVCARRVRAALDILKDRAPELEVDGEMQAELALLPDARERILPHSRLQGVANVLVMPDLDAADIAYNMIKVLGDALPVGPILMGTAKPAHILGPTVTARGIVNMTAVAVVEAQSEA

[2] = molecular target: T2, Aeropyrum pernix malate dehydrogenase, ApMDH (Aeropyrum pernix, UniProt Q9YEA1); assay: spectrophotometric NADH formation at […] nm; format: biochemical; conditions: L-malate as co-substrate
T2 sequence (Q9YEA1 1-308): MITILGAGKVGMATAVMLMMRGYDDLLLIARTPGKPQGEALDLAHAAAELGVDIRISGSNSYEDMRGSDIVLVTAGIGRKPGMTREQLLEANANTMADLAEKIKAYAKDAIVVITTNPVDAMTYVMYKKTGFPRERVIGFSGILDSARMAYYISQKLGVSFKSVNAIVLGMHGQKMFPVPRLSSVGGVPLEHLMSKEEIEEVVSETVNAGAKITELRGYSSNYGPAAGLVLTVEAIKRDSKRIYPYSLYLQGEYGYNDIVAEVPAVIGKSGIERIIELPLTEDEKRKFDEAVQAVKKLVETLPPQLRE

For `NC(=O)c1ccc[n+]([C@@H]2O[C@H](COP(=O)(O)OP(=O)(O)OC[C@H]3O[C@@H](n4cnc5c(N)ncnc54)[C@H](O)[C@@H]3O)[C@@H](O)[C@H]2O)c1` [NAD^+], the “spectrophotometric NADH formation at 340 nm” value [1] was “oxidation of L‐malate was accompanied by reduction of NAD^+ to NADH” and the “spectrophotometric NADH formation at 340 nm” value [2] was “oxidation of L‐malate was accompanied by reduction of NAD^+ to NADH”.
